Test results from publication PMC9911596 (Nature Communications, 2023).
Positions count from the first letter of the chain named.

Key:
[1] = biological target: T1, Vtc1/Vtc3/Vtc4 complex (VTC complex) (Saccharomyces cerevisiae, UniProt P47075+Q02725); assay: polyP synthesis, TBE-PAGE and DAPI; smFRET; assay type: biochemical; details: activator; 15 mM ATP, 10 mM MgCl2, 1 mM MnCl2, 0.5 mM pyrophosphate, ATP regeneration, 27 °C, 4 h; up to 10 mM InsP6; SPX domain of Vtc4 as sensor
T1 construct: full-length subunits co-expressed in Expi293F; Vtc1 C-terminal HA, Vtc3 N-terminal 3xFlag, Vtc4 C-terminal 2xStrep; detergent-purified; 3:1:1 pentamer; with Vacuolar transporter chaperone complex subunit 1
T1 sequence (P47075 1-721): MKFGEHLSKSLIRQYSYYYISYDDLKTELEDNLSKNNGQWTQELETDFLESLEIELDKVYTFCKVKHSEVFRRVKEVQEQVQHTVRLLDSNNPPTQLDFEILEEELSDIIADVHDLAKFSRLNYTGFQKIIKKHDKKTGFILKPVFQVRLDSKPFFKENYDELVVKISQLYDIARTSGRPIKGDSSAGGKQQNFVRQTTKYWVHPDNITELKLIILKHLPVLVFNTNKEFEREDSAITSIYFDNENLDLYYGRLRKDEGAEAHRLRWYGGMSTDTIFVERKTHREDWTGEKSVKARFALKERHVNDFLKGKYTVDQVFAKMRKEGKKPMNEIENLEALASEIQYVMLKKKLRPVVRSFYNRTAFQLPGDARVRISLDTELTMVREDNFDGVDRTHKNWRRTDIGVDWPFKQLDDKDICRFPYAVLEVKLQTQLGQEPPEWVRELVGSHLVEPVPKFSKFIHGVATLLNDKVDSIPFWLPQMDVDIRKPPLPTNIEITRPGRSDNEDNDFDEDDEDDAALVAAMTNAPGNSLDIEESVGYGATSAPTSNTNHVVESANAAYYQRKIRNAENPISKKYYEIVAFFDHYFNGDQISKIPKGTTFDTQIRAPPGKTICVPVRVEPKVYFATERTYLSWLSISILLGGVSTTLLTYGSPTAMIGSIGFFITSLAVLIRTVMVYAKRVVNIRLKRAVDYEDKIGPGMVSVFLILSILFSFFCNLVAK
T1 sequence (Q02725 1-835): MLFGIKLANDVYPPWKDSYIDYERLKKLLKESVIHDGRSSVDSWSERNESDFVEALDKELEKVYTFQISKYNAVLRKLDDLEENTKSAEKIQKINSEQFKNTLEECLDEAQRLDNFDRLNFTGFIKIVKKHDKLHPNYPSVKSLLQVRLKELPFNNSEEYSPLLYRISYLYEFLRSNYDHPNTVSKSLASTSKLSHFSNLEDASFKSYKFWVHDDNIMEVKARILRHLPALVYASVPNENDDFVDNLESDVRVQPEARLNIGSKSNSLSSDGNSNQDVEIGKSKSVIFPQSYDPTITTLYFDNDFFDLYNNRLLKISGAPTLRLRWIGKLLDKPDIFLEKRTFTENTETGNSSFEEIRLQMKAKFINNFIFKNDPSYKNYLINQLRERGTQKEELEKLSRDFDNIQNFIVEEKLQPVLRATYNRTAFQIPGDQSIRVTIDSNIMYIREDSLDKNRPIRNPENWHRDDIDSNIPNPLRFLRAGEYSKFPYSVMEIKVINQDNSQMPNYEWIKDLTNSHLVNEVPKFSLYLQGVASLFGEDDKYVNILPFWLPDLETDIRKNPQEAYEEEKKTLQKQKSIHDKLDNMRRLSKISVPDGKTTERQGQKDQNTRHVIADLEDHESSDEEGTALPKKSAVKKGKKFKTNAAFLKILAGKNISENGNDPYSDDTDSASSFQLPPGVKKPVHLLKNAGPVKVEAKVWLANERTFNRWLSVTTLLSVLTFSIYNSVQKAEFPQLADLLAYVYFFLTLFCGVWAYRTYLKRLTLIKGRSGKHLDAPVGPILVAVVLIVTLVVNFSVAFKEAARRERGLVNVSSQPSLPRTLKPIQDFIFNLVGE
T1 sequence (P40046 2-129 partner): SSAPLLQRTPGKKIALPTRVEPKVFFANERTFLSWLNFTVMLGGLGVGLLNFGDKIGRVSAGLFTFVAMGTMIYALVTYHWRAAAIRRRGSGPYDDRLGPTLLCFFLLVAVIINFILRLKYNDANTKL

[2] = biological target: T2, Vtc1/Vtc3/Vtc4 complex (VTC complex) (Saccharomyces cerevisiae, UniProt P47075+Q02725, Q02725:K333A/Q02725:K362A/Q02725:K364A/Q02725:Y380F); assay: polyP synthesis, TBE-PAGE; assay type: biochemical; details: activator; 15 mM ATP, 10 mM MgCl2, 1 mM MnCl2, 0.5 mM pyrophosphate, 27 °C; TTM cleft (second site) mutant
T2 construct: full-length subunits co-expressed in Expi293F; Vtc1 C-terminal HA, Vtc3 N-terminal 3xFlag, Vtc4 C-terminal 2xStrep; detergent-purified; 3:1:1 pentamer; with Vacuolar transporter chaperone complex subunit 1
T2 sequence (P47075 1-721): T1 sequence (P47075 1-721)
T2 sequence (Q02725 1-835 K333A/K362A/K364A/Y380F): T1 sequence (Q02725 1-835) with K333A, K362A, K364A, Y380F
T2 sequence (P40046 2-129 partner): T1 sequence (P40046 2-129 partner)

## O=P(O)(O)O[C@H]1[C@H](OP(=O)(O)O)[C@@H](OP(=O)(O)O)[C@H](OP(=O)(O)O)[C@@H](OP(=O)(O)O)[C@H]1OP(=O)(O)O [InsP6]
[1]
  polyP synthesis, TBE-PAGE and DAPI; smFRET: harbors polyP polymerase activity and that synthesizes polyP in an InsP6 dose-dependent manner
[2]
  polyP synthesis, TBE-PAGE: had little impact on InsP6-stimulated polyP synthesis by VTC complex
